Consider three molecules from paper PMC6633970, “Acetylcholinesterases from Leaf-Cutting ant Atta sexdens: Purification, Characterization, and Capillary Reactors for On-Flow Assays” (Enzyme Research, 2019).

The term Km denotes the concentration of substrate that gives half-maximal velocity. A word on the inhibition: it is the drop in the measured response relative to a control, in per cent.

Test [1] concerns T1, AsAChE-A.
T1 construct: gene ace 2; native, soluble, from worker heads
The test can be described thus: Ellman assay, […] nm, Lineweaver-Burk. The class given is biochemical, Atta sexdens. Particulars: free enzyme; Tris-HCl, optimal pH (9.5) and temperature (30 or 50 °C, which not told); iodide salt; partially purified native enzyme.

In test [2] the test system is T1, AsAChE-A. The test can be described thus: LC-MS/MS quantification of choline, HILIC. Particulars: free enzyme; 15 mM ammonium acetate, pH 5.0 as printed; 5 min. The class given is biochemical, Atta sexdens. The source says: LC-MS/MS quantification of choline, HILIC on AsAChE-A
The target in test [3] is T2, AsAChE-B (Atta sexdens, UniProt A0A2R2V0F5).
T2 construct: native, soluble, from worker heads
The test can be described thus: on-flow LC-MS/MS of choline with immobilized enzyme capillary reactor. Particulars: read-out: % inhibition at 0.1 mM. The class given is biochemical.

Turning to `CC(=O)SCC[N+](C)(C)C` [ATCh, acetylthiocholine], the Km in test [1] was 39.1 ± 2.3 µM.
For the molecule `CC(=O)OCC[N+](C)(C)C` [ACh, acetylcholine], the Km in test [2] is 40.7 ± 12.5 µM.
In the case of `Nc1c2c(nc3ccccc13)CCCC2` [tacrine], the inhibition at 100 µM in test [3] worked out at 16%.
